PubChem BioAssay (NCI)
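1) Cells in 96-well plates. 2) Compound, 48 h, 5 concentrations. 3) Linear interpolation between surrounding doses. 4) Unreached endpoint = highest concentration. Definition used: TGI = concentration required for complete inhibition of growth.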

What was measured:
Assay in all cases: inhibition of tumour cell growth, NCI panel, 48 h
NCI/ADR-RES ovarian = test system: NCI/ADR-RES ovarian
SK-OV-3 ovarian = test system: SK-OV-3 ovarian
T-47D breast = test system: T-47D breast
M14 melanoma = test system: M14 melanoma
MCF7 breast = test system: MCF7 breast
A498 renal = test system: A498 renal
SF-539 CNS = test system: SF-539 CNS
HT29 colon = test system: HT29 colon
IGROV1 ovarian = test system: IGROV1 ovarian
U251 CNS = test system: U251 CNS
SK-MEL-28 melanoma = test system: SK-MEL-28 melanoma
CCRF-CEM leukemia = test system: CCRF-CEM leukemia
RXF 393 renal = test system: RXF 393 renal
COLO 205 colon = test system: COLO 205 colon
NCI-H460 lung = test system: NCI-H460 lung
SNB-19 CNS = test system: SNB-19 CNS
KM12 colon = test system: KM12 colon
OVCAR-8 ovarian = test system: OVCAR-8 ovarian
SW-620 colon = test system: SW-620 colon

| Compound | TGI (NCI/ADR-RES ovarian) [µM] | TGI (SK-OV-3 ovarian) [µM] | TGI (T-47D breast) [µM] | TGI (M14 melanoma) [µM] | TGI (MCF7 breast) [µM] | TGI (A498 renal) [µM] | TGI (SF-539 CNS) [µM] | TGI (HT29 colon) [µM] | TGI (IGROV1 ovarian) [µM] | TGI (U251 CNS) [µM] | TGI (SK-MEL-28 melanoma) [µM] | TGI (CCRF-CEM leukemia) [µM] | TGI (RXF 393 renal) [µM] | TGI (COLO 205 colon) [µM] | TGI (NCI-H460 lung) [µM] | TGI (SNB-19 CNS) [µM] | TGI (KM12 colon) [µM] | TGI (OVCAR-8 ovarian) [µM] | TGI (SW-620 colon) [µM] |
| --- | --- | --- | --- | --- | --- | --- | --- | --- | --- | --- | --- | --- | --- | --- | --- | --- | --- | --- | --- |
| COC(=O)c1cc2c(cc1Cl)Sc1nnc(Nc3ccc(C)cc3)n1S2(=O)=O | 25.7 | 24.1 | 4.12 | 27.6 | 11.4 | 28.9 | 2.92 | 15.5 | 7.75 | 17 | 21.8 | 36.1 | 13.2 | 17.9 | 25.7 | 20.2 | 20.3 | 40.4 | – |
| O=C(c1cccs1)N1CCc2ccccc2C1 | > 100 | > 100 | > 100 | > 100 | > 100 | > 100 | > 100 | > 100 | > 100 | > 100 | > 100 | > 100 | > 100 | > 100 | > 100 | > 100 | > 100 | – | > 100 |
| CCc1cc(Cc2cc(CC)c(NC(=O)C(=O)CC(=O)c3sc(-c4cccnc4)nc3C)c(CC)c2)cc(CC)c1NC(=O)C(=O)CC(=O)c1sc(-c2cccnc2)nc1C | > 100 | > 100 | > 100 | > 100 | > 100 | > 100 | > 100 | > 100 | > 100 | > 100 | > 100 | > 100 | > 100 | > 100 | > 100 | > 100 | > 100 | > 100 | > 100 |
| CSc1nnc(SC)nn1 | 31.9 | 49 | > 100 | 28.9 | 32.7 | > 100 | 32.1 | 36.5 | 31 | 41.8 | – | 4.53 | 30.3 | 32.7 | 32.9 | 43.3 | 30 | 35.9 | 35.5 |
| O=c1cc(N2CCCC2)[nH]c(=O)n1-c1cccc(Cl)c1 | > 100 | > 100 | > 100 | > 100 | > 100 | > 100 | > 100 | > 100 | > 100 | > 100 | – | > 100 | > 100 | > 100 | > 100 | > 100 | > 100 | > 100 | > 100 |
| CC(=O)[C@@H](C)C(=O)N1C(=O)OC[C@@]12[C@@H]1CC[C@@H](C1)C2(C)C | > 100 | > 100 | > 100 | > 100 | > 100 | > 100 | > 100 | > 100 | > 100 | > 100 | > 100 | > 100 | > 100 | > 100 | > 100 | > 100 | > 100 | > 100 | > 100 |
| CCOC(=O)c1ccc(NCc2ccc3oc(=O)c(-c4ccccc4)nc3c2)cc1 | > 100 | > 100 | 34.1 | > 100 | 38 | > 100 | > 100 | > 100 | > 100 | > 100 | 87.3 | 22.6 | 87.4 | 62.6 | > 100 | > 100 | > 100 | 65 | 50.4 |
| CC(C)=CCC(O)[C@](C)(O)[C@H]1[C@H](O)C[C@@]2(C)[C@@H]3CCc4cc(O)c(OC5OC(CO)C(O)C(O)C5O)cc4C3(C)C(=O)C[C@]12C (stereo partly specified) | > 100 | > 100 | > 100 | > 100 | > 100 | > 100 | > 100 | > 100 | > 100 | > 100 | > 100 | > 100 | > 100 | > 100 | > 100 | > 100 | > 100 | > 100 | > 100 |
| CC(C)=C[C@H]1CCC2(OCCO2)[C@]1(C)CO | > 100 | > 100 | > 100 | > 100 | > 100 | > 100 | > 100 | – | > 100 | – | > 100 | > 100 | > 100 | > 100 | > 100 | > 100 | > 100 | > 100 | > 100 |
| COC(=O)c1cc2c(cc1CC(Cc1ccc3c(c1)CCCC3)C(=O)OC)CCCC2 (stereo unspecified) | > 100 | > 100 | > 100 | > 100 | > 100 | > 100 | > 100 | > 100 | > 100 | > 100 | > 100 | > 100 | 72.9 | > 100 | > 100 | > 100 | > 100 | > 100 | > 100 |
| Cc1ccc(S(=O)(=O)N/N=C2/CCCOC2)cc1 | > 100 | > 100 | > 100 | > 100 | > 100 | > 100 | > 100 | > 100 | > 100 | > 100 | > 100 | > 100 | > 100 | > 100 | > 100 | > 100 | > 100 | > 100 | > 100 |
| CO/C=C(/C(=O)OC)c1ccccc1COc1cccc(C(F)(F)F)c1 | > 100 | > 100 | 91.4 | > 100 | > 100 | 68.6 | > 100 | > 100 | 47.3 | > 100 | > 100 | 27.3 | 78.3 | 28.5 | > 100 | > 100 | > 100 | > 100 | – |
